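Values below derive from 48-hour exposures of cells grown in 96-well plates, with endpoints linearly interpolated between the two concentrations bracketing the appropriate inhibition level. Abbreviation: GI50, concentration required for 50% inhibition of growth.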 Activity calls are given as the source filed them. Cut-off read from the data, not from the text of the source: active = GI50 up to about 1.1 µM and inactive = higher.
Tests used:
Assay in all cases: NCI anticancer screen, dose series, 48 h
HOP-92 = tested on: HOP-92
EKVX = tested on: EKVX
SK-MEL-28 = tested on: SK-MEL-28
MCF7 = tested on: MCF7
U-251 = tested on: U-251
OVCAR-3 = tested on: OVCAR-3
Hs-578T = tested on: Hs-578T
NCI-H460 = tested on: NCI-H460
BT-549 = tested on: BT-549
RXF 393 = tested on: RXF 393
OVCAR-4 = tested on: OVCAR-4
NCI-H23 = tested on: NCI-H23
MDA-N = tested on: MDA-N
SW-620 = tested on: SW-620
A549 = tested on: A549
HCT-116 = tested on: HCT-116
PC-3 = tested on: PC-3
SK-MEL-2 = tested on: SK-MEL-2
T47D = tested on: T47D
Malme-3M = tested on: Malme-3M

Measured: GI50

Cc1ccnc(NS(=O)(=O)c2ccc(NC(=O)c3ccc4nc5ccccc5c(Nc5ccc(S(=O)(=O)Nc6nccc(C)n6)cc5)c4c3)cc2)n1
inactive: HOP-92 23.2 µM | EKVX > 100 µM | SK-MEL-28 > 100 µM | MCF7 21.1 µM | U-251 19.8 µM | OVCAR-3 33.6 µM | Hs-578T 37.3 µM | NCI-H460 65.3 µM | BT-549 14.3 µM | RXF 393 13.6 µM | OVCAR-4 52.4 µM | NCI-H23 > 100 µM | MDA-N 62.4 µM | SW-620 > 100 µM | A549 > 100 µM | HCT-116 59 µM | PC-3 > 100 µM | SK-MEL-2 16 µM | T47D 30.8 µM | Malme-3M 78.5 µM

CC(=O)OC1CCC2(C)C(=CCC3C2CCC2(C)C(C(C)C(=O)O)CCC32)C1 (stereo not given)
inactive: HOP-92 > 100 µM | EKVX 56.9 µM | SK-MEL-28 > 100 µM | MCF7 51.1 µM | U-251 88.9 µM | OVCAR-3 > 100 µM | Hs-578T > 100 µM | NCI-H460 63 µM | BT-549 > 100 µM | RXF 393 69.5 µM | OVCAR-4 > 100 µM | NCI-H23 > 100 µM | MDA-N > 100 µM | SW-620 > 100 µM | A549 54.8 µM | HCT-116 75.9 µM | PC-3 > 100 µM | SK-MEL-2 > 100 µM | T47D > 100 µM | Malme-3M > 100 µM

CC(=O)N(CC(=O)C(=O)NNc1ccoc1)c1ccc(Cl)cc1
inactive: HOP-92 > 100 µM | EKVX > 100 µM | SK-MEL-28 > 100 µM | MCF7 50.5 µM | U-251 > 100 µM | OVCAR-3 > 100 µM | Hs-578T > 100 µM | NCI-H460 > 100 µM | BT-549 > 100 µM | RXF 393 > 100 µM | OVCAR-4 > 100 µM | NCI-H23 > 100 µM | MDA-N > 100 µM | SW-620 > 100 µM | A549 > 100 µM | HCT-116 > 100 µM | PC-3 > 100 µM | SK-MEL-2 > 100 µM | T47D > 100 µM | Malme-3M > 100 µM

CC(=O)Nc1ccc(-c2nc3cc(Cl)ccc3o2)cc1
inactive: HOP-92 > 50 µM | EKVX > 50 µM | SK-MEL-28 > 50 µM | MCF7 > 50 µM | U-251 45.7 µM | OVCAR-3 > 50 µM | Hs-578T > 50 µM | NCI-H460 > 50 µM | BT-549 > 50 µM | RXF 393 > 50 µM | OVCAR-4 > 50 µM | NCI-H23 > 50 µM | MDA-N > 50 µM | SW-620 > 50 µM | A549 > 50 µM | HCT-116 > 50 µM | PC-3 > 50 µM | SK-MEL-2 > 50 µM | T47D 20.4 µM | Malme-3M > 50 µM

O=C(c1c2c(cc3c1CC1(Cc4cc5c(cc4C1)CCCC5)C3)CCCC2)C(Br)Br
inactive: HOP-92 13.4 µM | EKVX 34.7 µM | SK-MEL-28 16.5 µM | MCF7 7.67 µM | U-251 16.2 µM | OVCAR-3 18.7 µM | Hs-578T 30.8 µM | NCI-H460 40.2 µM | BT-549 5.48 µM | RXF 393 6.73 µM | OVCAR-4 12.4 µM | NCI-H23 14.6 µM | MDA-N 14.8 µM | SW-620 5.48 µM | A549 43.8 µM | HCT-116 14.9 µM | PC-3 12.5 µM | SK-MEL-2 19.2 µM | T47D 6.38 µM | Malme-3M 3.53 µM
